Test results: patent publication US11554171B2, “Compounds and methods for the targeted degradation of bromodomain-containing proteins” (Arvinas Operations, Inc., priority 2015, dated 2023)

Test system: c-myc in 22RV-1 cells
Assay: Human c-myc ELISA assay
Type: cell-based
Conditions: Homo sapiens; for Emax: 22Rv1, 18 h, read-out: Degradation of BRD4: Maximum inhibition (%) c-Myc ELISA in 22RV1 cells; for DC50: 22Rv1, read-out: Degradation of BRD4: DC50 (uM) c-Myc ELISA in 22RV1 cells
Outline: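 c-myc levels measured by ELISA in RIPA lysates of 22RV-1 cells, calibrated with a 333-0 pg/ml standard curve. Lysates came from cells exposed for 18 h to an 8-point, 1:3 dose series starting at 300 nM or 1 μM final in 0.1% DMSO. Suppression potency given as DC50.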

Row | Compound | DC50 [µM] | Emax [%]
1 | Cc1ncsc1-c1ccc([C@H](C)NC(=O)[C@@H]2C[C@@H](O)CN2C(=O)[C@@H](NC(=O)COc2ccc(O[C@@H](C)CNC(=O)C[C@@H]3N=C(c4ccc(Cl)cc4)c4c(sc(C)c4C)-n4c(C)nnc43)cc2)C(C)(C)C)cc1 [Example 135, (2S,4R)-1-[(2S)-2-{2-[(6-{[(2S)-1-{2-[(9S)-7-(4-chlorophenyl)-4,5,13-trimethyl-3-thia-1,8,11,12-tetraazatricyclo[8.3.0.0^2,^6]trideca-2(6),4,7,10,12-pentaen-9-yl]acetamido}propan-2-yl]oxy}pyridin-3-yl)oxy]acetamido}-3,3-dimethylbutanoyl]-4-hydroxy-N-[(1S)-1-[4-(4-methyl-1,3-thiazol-5-yl)phenyl]ethyl]pyrrolidine-2-carboxamide] | < 0.01 | 99
2 | CC1=NN=C2C1c1sc(C)c(C)c1C(c1ccc(Cl)cc1)=N[C@H]2CC(=O)NCCOCCOCCC(=O)N[C@H](C(=O)N1C[C@H](O)CC1C(=O)N[C@@H](C)c1ccc(-c2scnc2C)cc1)C(C)(C)C (some centres unmarked) [Example 136] | 0.01 to 0.1 | 96
3 | Cc1ncsc1-c1ccc(CNC(=O)[C@@H]2C[C@@H](O)CN2C(=O)[C@@H](NC(=O)COCCO[C@H]2C[C@H](NC(=O)C[C@@H]3N=C(c4ccc(Cl)cc4)c4c(sc(C)c4C)-n4c(C)nnc43)C2)C(C)(C)C)cc1 [Example 137] | 0.1 to 1 | 86.9
4 | Cc1ncsc1-c1ccc(CNC(=O)[C@@H]2C[C@@H](O)CN2C(=O)[C@@H](NC(=O)COCCO[C@H]2C[C@@H](NC(=O)C[C@@H]3N=C(c4ccc(Cl)cc4)c4c(sc(C)c4C)-n4c(C)nnc43)C2)C(C)(C)C)cc1 [Example 138] | 0.1 to 1 | 89.4
5 | Cc1ncsc1-c1ccc(CNC(=O)[C@@H]2C[C@@H](O)CN2C(=O)[C@@H](NC(=O)CCc2ccc(OCCNC(=O)C[C@@H]3N=C(c4ccc(Cl)cc4)c4c(sc(C)c4C)-n4c(C)nnc43)nc2)C(C)(C)C)cc1 [Example 139, (2S,4R)-1-[(2S)-2-{3-[6-(2-{2-[(9S)-7-(4-chlorophenyl)-4,5,13-trimethyl-3-thia-1,8,11,12-tetraazatricyclo[8.3.0.0^2,^6]trideca-2(6),4,7,10,12-pentaen-n-9-yl]acetamido}ethoxy)pyridin-3-yl]propanamido}-3,3-dimethylbutanoyl]-4-hydroxy-N-{[4-(4-methyl-1,3-thiazol-5-yl)phenyl]methyl}pyrrolidine-2-carboxamide] | < 0.01 | 98
6 | Cc1ncsc1-c1ccc(CNC(=O)[C@@H]2C[C@@H](O)CN2C(=O)[C@@H](NC(=O)COc2ccc(O[C@H]3C[C@H](NC(=O)C[C@@H]4N=C(c5ccc(Cl)cc5)c5c(sc(C)c5C)-n5c(C)nnc54)C3)nc2)C(C)(C)C)cc1 [Example 140] | < 0.01 | 98
7 | Cc1ncsc1-c1ccc([C@H](C)NC(=O)[C@@H]2C[C@@H](O)CN2C(=O)[C@@H](NC(=O)COc2ccc(O[C@H]3C[C@H](NC(=O)C[C@@H]4N=C(c5ccc(Cl)cc5)c5c(sc(C)c5C)-n5c(C)nnc54)C3)nc2)C(C)(C)C)cc1 [Example 141, (2S,4R)-1-[(2S)-3,3-dimethyl-2-[2-({6-[(1,3trans)-3-{2-[(9S)-7-(4-chlorophenyl)-4,5,13-trimethyl-3-thia-1,8,11,12-tetraazatricyclo[8.3.0.0^2,^6]trideca-2(6),4,7,10,12-pentaen-9-yl]acetamido}cyclobutoxy]pyridin-3-yl}oxy)acetamido]butanoyl]-4-hydroxy-N-[(1S)-1-[4-(4-methyl-1,3-thiazol-5-yl)phenyl]ethyl]pyrrolidine-2-carboxamide] | < 0.01 | 98
8 | Cc1ncsc1-c1ccc([C@H](C)NC(=O)[C@@H]2C[C@@H](O)CN2C(=O)[C@@H](NC(=O)CCc2cc(OCCNC(=O)C[C@@H]3N=C(c4ccc(Cl)cc4)c4c(sc(C)c4C)-n4c(C)nnc43)ccc2F)C(C)(C)C)cc1 [Example 142, (2S,4R)-1-[(2S)-2-{3-[5-(2-{2-[(9S)-7-(4-chlorophenyl)-4,5,13-trimethyl-3-thia-1,8,11,12-tetraazatricyclo[8.3.0.0^2,^6]trideca-2(6),4,7,10,12-pentaen-9-yl]acetamido}ethoxy)-2-fluorophenyl]propanamido}-3,3-dimethylbutanoyl]-4-hydroxy-N-[(1S)-1-[4-(4-methyl-1,3-thiazol-5-yl)phenyl]ethyl]pyrrolidine-2-carboxamide] | < 0.01 | 98
9 | Cc1ncsc1-c1ccc(CNC(=O)[C@@H]2C[C@@H](O)CN2C(=O)[C@@H](NC(=O)COCCCOCCCCCOc2ccc3c(c2)c2c(C(N)=O)cc(-c4c(C)noc4C)cc2n3Cc2ccccc2)C(C)(C)C)cc1 [Example 143, 9-benzyl-2-(dimethyl-1,2-oxazol-4-yl)-6-({5-[3-({[(2S)-1-[(2S,4R)-4-hydroxy-2-({[4-(4-methyl-1,3-thiazol-5-yl)phenyl]methyl}carbamoyl)pyrrolidin-1-yl]-3,3-dimethyl-1-oxobutan-2-yl]carbamoyl}methoxy)propoxy]pentyl}oxy)-9H-carbazole-4-carboxamide] | < 0.01 | 100
10 | Cc1ncsc1-c1ccc(CNC(=O)[C@@H]2C[C@@H](O)CN2C(=O)[C@@H](c2cnn(CCCOCCNC(=O)C[C@@H]3N=C(c4ccc(Cl)cc4)c4c(sc(C)c4C)-n4c(C)nnc43)c2)C(C)C)cc1 [Example 144] | 0.1 to 1 | 73
11 | Cc1ncsc1-c1ccc(CNC(=O)[C@@H]2C[C@@H](O)CN2C(=O)[C@H](c2cnn(CCCOCCNC(=O)C[C@@H]3N=C(c4ccc(Cl)cc4)c4c(sc(C)c4C)-n4c(C)nnc43)c2)C(C)C)cc1 [Example 145] | > 1 | 15.9

Further lines, with some results ahead:

Row | DC50 [µM] | Compound | Emax [%]
12 | < 0.01 | Cc1ncsc1-c1ccc([C@H](C)NC(=O)[C@@H]2C[C@@H](O)CN2C(=O)[C@@H](NC(=O)COC/C=C\COCCNC(=O)C[C@@H]2N=C(c3ccc(Cl)cc3)c3c(sc(C)c3C)-n3c(C)nnc32)C(C)(C)C)cc1 [Example 146, (2S,4R)-1-[(2S)-2-(2-{[(2Z)-4-(2-{2-[(9S)-7-(4-chlorophenyl)-4,5,13-trimethyl-3-thia-1,8,11,12-tetraazatricyclo[8.3.0.0^2,^6]trideca-2(6),4,7,10,12-pentaen-9-yl]acetamido}ethoxy)but-2-en-1-yl]oxy}acetamido)-3,3-dimethylbutanoyl]-4-hydroxy-N-[(1S)-1-[4-(4-methyl-1,3-thiazol-5-yl)phenyl]ethyl]pyrrolidine-2-carboxamide] | 100
13 | < 0.01 | Cc1ncsc1-c1ccc([C@H](C)NC(=O)[C@@H]2C[C@@H](O)CN2C(=O)[C@@H](NC(=O)COCCOCCCNC(=O)C[C@@H]2N=C(c3ccc(Cl)cc3)c3c(sc(C)c3C)-n3c(C)nnc32)C(C)(C)C)cc1 [Example 147] | 98.5
14 | < 0.01 | Cc1ncsc1-c1ccc([C@H](C)NC(=O)[C@@H]2C[C@@H](O)CN2C(=O)[C@@H](NC(=O)COCCCOCCN(C)C(=O)C[C@@H]2N=C(c3ccc(Cl)cc3)c3c(sc(C)c3C)-n3c(C)nnc32)C(C)(C)C)cc1 [Example 148] | 100
15 | 0.1 to 1 | CC(=O)N[C@H](C(=O)N1C[C@H](O)C[C@H]1C(=O)NCc1ccc(-c2scnc2C)cc1OCCOCCOc1ccc(C2=NC(CC(=O)Nc3ccccc3)c3nnc(C)n3-c3sc(C)c(C)c32)cc1)C(C)(C)C (some centres unmarked) [Example 149] | 57.3
16 | < 0.01 | Cc1ncsc1-c1ccc([C@H](C)NC(=O)[C@@H]2C[C@@H](O)CN2C(=O)[C@@H](NC(=O)CCc2cc(F)cc(OCCNC(=O)C[C@@H]3N=C(c4ccc(Cl)cc4)c4c(sc(C)c4C)-n4c(C)nnc43)c2)C(C)(C)C)cc1 [Example 150, (2S,4R)-1-[(2S)-2-{3-[3-(2-{2-[(9S)-7-(4-chlorophenyl)-4,5,13-trimethyl-3-thia-1,8,11,12-tetraazatricyclo[8.3.0.0^2,^6]trideca-2(6),4,7,10,12-pentaen-9-yl]acetamido}ethoxy)-5-fluorophenyl]propanamido}-3,3-dimethylbutanoyl]-4-hydroxy-N-[(1S)-1-[4-(4-methyl-1,3-thiazol-5-yl)phenyl]ethyl]pyrrolidine-2-carboxamide] | 93.9
17 | < 0.01 | Cc1ncsc1-c1ccc([C@H](C)NC(=O)[C@@H]2C[C@@H](O)CN2C(=O)[C@@H](NC(=O)CCc2cc(OC(C)CNC(=O)C[C@@H]3N=C(c4ccc(Cl)cc4)c4c(sc(C)c4C)-n4c(C)nnc43)ccc2F)C(C)(C)C)cc1 (some centres unmarked) [Example 151] | 96
18 | 0.01 to 0.1 | Cc1ncsc1-c1ccc(CNC(=O)[C@@H]2C[C@@H](O)CN2C(=O)[C@@H](NC(=O)COCCOCCOCCCCOc2ccc3c(c2)c2c(C(N)=O)cc(-c4c(C)noc4C)cc2n3Cc2ccccc2)C(C)(C)C)cc1 [Example 152] | 95
19 | < 0.01 | Cc1ncsc1-c1ccc([C@H](C)NC(=O)[C@@H]2C[C@@H](O)CN2C(=O)[C@@H](NC(=O)[C@H](C)OCCCOCCNC(=O)C[C@@H]2N=C(c3ccc(Cl)cc3)c3c(sc(C)c3C)-n3c(C)nnc32)C(C)(C)C)cc1 [Example 153] | 92
20 | < 0.01 | Cc1ncsc1-c1ccc([C@H](C)NC(=O)[C@@H]2C[C@@H](O)CN2C(=O)[C@@H](NC(=O)[C@@H](C)OCCCOCCNC(=O)C[C@@H]2N=C(c3ccc(Cl)cc3)c3c(sc(C)c3C)-n3c(C)nnc32)C(C)(C)C)cc1 [Example 154] | 94.5
21 | 0.1 to 1 | CC(=O)N[C@H](C(=O)N1C[C@H](O)C[C@H]1C(=O)NCc1ccc(-c2scnc2C)cc1OCCCOc1ccc(C2=N[C@@H](CC(=O)Nc3ccccc3)c3nnc(C)n3-c3sc(C)c(C)c32)cc1)C(C)(C)C [Example 155] | 65.5
22 | < 0.01 | Cc1ncsc1-c1ccc([C@H](C)NC(=O)[C@@H]2C[C@@H](O)CN2C(=O)[C@@H](NC(=O)CCc2cc(F)cc(OC(C)CNC(=O)C[C@@H]3N=C(c4ccc(Cl)cc4)c4c(sc(C)c4C)-n4c(C)nnc43)c2)C(C)(C)C)cc1 (some centres unmarked) [Example 156] | 96.5
